Assay [1] has as its system platelets in whole blood. Put plainly: Platelet function testing with the Hemostasis Mechanism Analyzer (HMA): clumping, sticking, clotting in whole blood. The format is cell-based, human. To be noted: for activity at 3300 µg/mL / activity at 6700 µg/mL / activity at 11700 µg/mL / activity at 23300 µg/mL / activity at 5000 µg/mL / activity at 700 µg/mL / activity at 670 µg/mL: Homo sapiens, Platelet; for activity at 700 µg/mL: Dosage (mg/ml) 0.7; for activity at 670 µg/mL: Dosage (mg/ml) 0.67.

Assay [2] concerns mitochondria isolated from liver of tilapia (Sarotheridon mossambica). Format: biochemical.
Setting [3] is: Dosage (mg/ml) 3.3, 0 dosage = 100, read-out: % clot time increase.
Setting [4] is: Dosage (mg/ml) 3.3, 0 dosage = 100, read-out: % clump time increase.
The mark [5] stands for this setting: Dosage (mg/ml) 3.3, 0 dosage = 100, read-out: % stick time increase.
Setting [6] is: Dosage (mg/ml) 6.7, 0 dosage = 100, read-out: % clot time increase.
Setting [7] is: Dosage (mg/ml) 6.7, 0 dosage = 100, read-out: % clump time increase.
[8] abbreviates: Dosage (mg/ml) 6.7, 0 dosage = 100, read-out: % stick time increase.
Where [9] appears, read: Dosage (mg/ml) 11.7, 0 dosage = 100, read-out: % clot time increase.
Setting [10] is: Dosage (mg/ml) 11.7, 0 dosage = 100, read-out: % clump time increase.
Where [11] appears, read: Dosage (mg/ml) 11.7, 0 dosage = 100, read-out: % stick time increase.
The mark [12] stands for this setting: Dosage (mg/ml) 23.3, 0 dosage = 100, read-out: % clot time increase.
[13] abbreviates: Dosage (mg/ml) 23.3, 0 dosage = 100, read-out: % clump time increase.
[14] abbreviates: Dosage (mg/ml) 23.3, 0 dosage = 100, read-out: % stick time increase.
Setting [15] is: in vitro whole blood assay, clumping, sticking, clotting.
Where [16] appears, read: Dosage (mg/ml) 5, 0 dosage = 100, read-out: % clot time increase.
Where [17] appears, read: Dosage (mg/ml) 5, 0 dosage = 100, read-out: % clump time increase.
The mark [18] stands for this setting: Dosage (mg/ml) 5, 0 dosage = 100, read-out: % stick time increase.
[19] abbreviates: 0 dosage = 100, read-out: % clot time increase.
Setting [20] is: 0 dosage = 100, read-out: % clump time increase.
Where [21] appears, read: 0 dosage = 100, read-out: % stick time increase.
Setting [22] is: read-out: % clump time increase.
Where [23] appears, read: read-out: % stick time increase.

Experimental findings from patent publication US9918964B2, “Reducing platelet activation, aggregation and platelet-stimulated thrombosis or blood coagulation by reducing mitochondrial respiration” (priority 2010, dated 2018) are described below.

Converted amounts (≈) assume the structure as drawn. “And” between values parts separate entries of the source, which are not always exact repeats. Identical values can stand only once. Like-named read-outs stand apart in the source and are kept apart here.

Take 1H-triazole [Compound 99]: in assay [1], the “% clot time increase” value was 108% and 103%; the “% clump time increase” value was 103% and 99%; the “% stick time increase” value is 99% and 104%.

Take `O=C(O)CCCCC1CCSS1` (single isomer, unassigned) [Compound 90, 5-[(3R or 3S)-dithiolan-3-yl]pentanoic acid]: the “IC50 (mg/ml) mitochondria inhibition” value in assay [2] came to 37.1 mg/mL (≈ 180 mM). For the same compound, the activity at 3300 µg/mL in assay [1] (setting [3]) was 97%; in assay [1] (setting [4]), 102%; in assay [1] (setting [5]), 104%. Further, the activity at 6700 µg/mL came out at 104% in assay [1] (setting [6]), 97% in assay [1] (setting [7]) and 100% in assay [1] (setting [8]). Further, the activity at 11700 µg/mL in assay [1] (setting [9]) worked out at 100%; in assay [1] (setting [10]) it was 110%; in assay [1] (setting [11]) it was 110%. For the same compound, the activity at 23300 µg/mL worked out at 110% in assay [1] (setting [12]), 129% in assay [1] (setting [13]) and 136% in assay [1] (setting [14]). The “activity in the platelet assays (active agent or inactive)” value (from here on “activity in the platelet assays”) in assay [1] (setting [15]) was “inactive”.

With `c1ccc(-c2cnn[nH]2)cc1` [Compound 2, 5-phenyl-1H-triazole], the “activity in the platelet assays” value in assay [1] (setting [15]) was “met the criteria for active agents”.

As for `Cn1cncn1` [Compound 8, 1-Methyl-1,2,4-triazole], the results for the activity at 3300 µg/mL in assay [1] (setting [3]), in assay [1] (setting [4]) and in assay [1] (setting [5]) were 104%, 105% and 98%, respectively. The activity at 5000 µg/mL worked out at 105% in assay [1] (setting [16]), 121% in assay [1] (setting [17]) and 118% in assay [1] (setting [18]). For the same compound, the activity at 6700 µg/mL in assay [1] (setting [6]) was determined as 105%; in assay [1] (setting [7]) it was 130%; in assay [1] (setting [8]), 121%.

In the case of `FC(F)(F)c1ccc(-c2nnn[nH]2)cc1` [Compound 18, 5-[4-(trifluoromethyl)phenyl]-1H-tetrazole], the activity at 6700 µg/mL stood at 106% in assay [1] (setting [6]), 127% in assay [1] (setting [7]) and 106% in assay [1] (setting [8]).

Consider `OC(c1ccccc1)c1nnn[nH]1` (centres unmarked) [Compound 24, phenyl(1H-tetrazol-5-yl)methanol], for which the activity at 700 µg/mL stood at 96% in assay [1] (setting [19]), 109% in assay [1] (setting [20]) and 105% in assay [1] (setting [21]). For the same compound, the values for the activity at 3300 µg/mL in assay [1] (setting [3]), in assay [1] (setting [4]) and in assay [1] (setting [5]) were 105%, 126% and 124%, respectively. The values for the activity at 5000 µg/mL in assay [1] (setting [16]), in assay [1] (setting [17]) and in assay [1] (setting [18]) were 113%, 156% and 152%, respectively. For the same compound, the activity at 6700 µg/mL in assay [1] (setting [6]) is 116%; in assay [1] (setting [7]), 160%; in assay [1] (setting [8]) it was 143%.

Turning to `COc1ccc(-c2nnn[nH]2)cc1` [Compound 26, 5-(4-methoxyphenyl)-1H-tetrazole], the activity at 6700 µg/mL in assay [1] (setting [6]) came to 102%; in assay [1] (setting [7]), 122%; in assay [1] (setting [8]) it was 118%.

For the compound `Cn1cnnc1S` [Compound 33, 4-methyl-1,2,4-triazole-3-thiol], the activity at 5000 µg/mL stood at 100% in assay [1] (setting [16]), 100% in assay [1] (setting [17]) and 119% in assay [1] (setting [18]). The activity at 6700 µg/mL turned out to be 108% in assay [1] (setting [6]), 115% in assay [1] (setting [7]) and 123% in assay [1] (setting [8]).

For the compound `Cc1ncsc1CCCl` [Compound 45, 5-(2-chloroethyl)-4-methyl-thiazole], the activity at 6700 µg/mL came to 101% in assay [1] (read-out: % clot time increase), 119% in assay [1] (setting [22]) and 108% in assay [1] (setting [23]).

In the case of `C[N+](C)(C)[C@@H](Cc1c[nH]c(=S)[nH]1)C(=O)[O-]` [Compound 50, (2S)-3-(2-thioxo-1,3-dihydroimidazol-4-yl)-2-(trimethylammonio) propanoate], the “IC50 (mg/ml) mitochondria inhibition” value in assay [2] is 86 mg/mL (≈ 375 mM). In addition, the “activity in the platelet assays” value in assay [1] (setting [15]) was “inactive”.

Take `C[N+](C)(C)[C@H](Cc1c[nH]c(=S)[nH]1)C(=O)[O-]` [Compound 51, (2R)-3-(2-thioxo-1,3-dihydroimidazol-4-yl)-2-(trimethylammonio) propanoate]: the “IC50 (mg/ml) mitochondria inhibition” value in assay [2] came to 93.8 mg/mL (≈ 409 mM). Besides, in assay [1] (setting [15]), the “activity in the platelet assays” value is “inactive”.

With `C1CCc2nnnn2CC1` [Compound 52, 6,7,8,9-tetrahydro-5H-tetrazolo[1,5-a]azepine], in assay [1] (read-out: % clot time increase), the activity at 3300 µg/mL is 105%, the activity at 5000 µg/mL was determined as 112% and the activity at 6700 µg/mL is 117%. Further, in assay [1] (setting [22]), the activity at 3300 µg/mL was 115%, the activity at 5000 µg/mL worked out at 143% and the activity at 6700 µg/mL stood at 130%. In addition, in assay [1] (setting [23]), the activity at 3300 µg/mL turned out to be 120%, the activity at 5000 µg/mL is 138% and the activity at 6700 µg/mL was 131%.

For `Cn1nnnc1S` [Compound 53, 1-methyltetrazole-5-thiol], in assay [2], the “IC50 (mg/ml) mitochondria inhibition” value came to 27.5 mg/mL (≈ 237 mM). The activity at 3300 µg/mL stood at 117% in assay [1] (setting [3]), 124% in assay [1] (setting [4]) and 117% in assay [1] (setting [5]). Besides, the activity at 5000 µg/mL in assay [1] (setting [16]) worked out at 132%; in assay [1] (setting [17]) it was 185%; in assay [1] (setting [18]), 176%. Moreover, the activity at 6700 µg/mL in assay [1] (setting [6]) is 160%; in assay [1] (setting [7]), 292%; in assay [1] (setting [8]) it was 265%.

Turning to `Cc1ncsc1CCO` [Compound 60, 2-(4-methylthiazol-5-yl)ethanol], the activity at 700 µg/mL in assay [1] (setting [19]) was 100%; in assay [1] (setting [20]) it was 108%; in assay [1] (setting [21]), 103%. In addition, the results for the activity at 3300 µg/mL in assay [1] (setting [3]), in assay [1] (setting [4]) and in assay [1] (setting [5]) were 104%, 136% and 135%, respectively. The activity at 5000 µg/mL came out at 110% in assay [1] (setting [16]), 158% in assay [1] (setting [17]) and 155% in assay [1] (setting [18]). For the same compound, the activity at 6700 µg/mL in assay [1] (setting [6]) came to 115%; in assay [1] (setting [7]), 192%; in assay [1] (setting [8]) it was 182%.

As to `COCCc1nn[nH]n1` [Compound 68, 5-(2-methoxyethyl)-2H-tetrazole], the activity at 670 µg/mL in assay [1] (setting [19]) was 108%; in assay [1] (setting [20]), 100%; in assay [1] (setting [21]), 110%. In addition, the activity at 3300 µg/mL is 107% in assay [1] (setting [3]), 100% in assay [1] (setting [4]) and 114% in assay [1] (setting [5]). The figures for the activity at 6700 µg/mL in assay [1] (setting [6]), in assay [1] (setting [7]) and in assay [1] (setting [8]) were 129%, 186% and 175%, respectively.

Turning to `Cn1cc[nH]c1=S` [Compound 78, 3-methyl-1H-imidazole-2-thione, reference compound], in assay [1] (read-out: % clot time increase), the activity at 6700 µg/mL was 110%, the activity at 11700 µg/mL amounted to 123% and the activity at 23300 µg/mL worked out at 156%. In addition, in assay [1] (setting [22]), the activity at 6700 µg/mL stood at 124%, the activity at 11700 µg/mL came to 132% and the activity at 23300 µg/mL amounted to 216%. In addition, in assay [1] (setting [23]), the activity at 6700 µg/mL was 101%, the activity at 11700 µg/mL stood at 118% and the activity at 23300 µg/mL is 203%. Further, the “activity in the platelet assays” value in assay [1] (setting [15]) is on record as “met the criteria for active agents”.

As to `COc1cc(/C=C/C(=O)/C=C(O)/C=C/c2ccc(O)c(OC)c2)ccc1O` [Compound 85, (1E,4Z,6E)-5-hydroxy-1,7-bis(4-hydroxy-3-methoxy-phenyl)hepta-1,4,6-trien-3-one], the “activity in the platelet assays” value in assay [1] (setting [15]) is “none of them were active agents”.

For `C=CCSCC=C` [Compound 86, 3-allylsulfanylprop-1-ene], the “activity in the platelet assays” value in assay [1] (setting [15]) was “none of them were active agents”.

Turning to `CCCCC[C@H](O)CC(=O)CCc1ccc(O)c(OC)c1` [Compound 88, (5S)-5-hydroxy-1-(4-hydroxy-3-methoxy-phenyl)decan-3-one], the activity at 3300 µg/mL was determined as 104% in assay [1] (setting [3]), 107% in assay [1] (setting [4]) and 100% in assay [1] (setting [5]). Besides, the activity at 6700 µg/mL in assay [1] (setting [6]) was 102%; in assay [1] (setting [7]), 106%; in assay [1] (setting [8]) it was 101%. In addition, the activity at 11700 µg/mL in assay [1] (setting [9]) is 104%; in assay [1] (setting [10]), 111%; in assay [1] (setting [11]) it was 110%. In addition, the activity at 23300 µg/mL was found to be 100% in assay [1] (setting [12]), 128% in assay [1] (setting [13]) and 132% in assay [1] (setting [14]). Moreover, the “activity in the platelet assays” value in assay [1] (setting [15]) was “none of them were active agents”.

As to `Oc1ccc(/C=C/c2cc(O)cc(O)c2)cc1` [Compound 89, 5-[(E)-2-(4-hydroxyphenyl)vinyl] benzene-1,3-diol], in assay [1], the “activity in the platelet assays” value is given as “none of them were active agents”.

For `N=C(N)NC(N)=S` [Compound 102, carbamimidoylthiourea], the “activity in the platelet assays” value in assay [1] (setting [15]) is given as “none of them were active agents”.
